Source: paper PMC5082894 (PLoS ONE, 2016)

How the values were obtained:
MN gp120 (X4-tropic) = target: T1, MN gp120 (X4-tropic) (Human immunodeficiency virus type 1 group M subtype B, UniProt P05877); format: binding, HIV-1; conditions: SPR, 0 to 25 μM injected
T1 construct: MN gp120 (50 μg/ml in 5 mM maleate buffer, pH 6); purchased Immunodiagnostics (Massachusetts, USA)
Method: (§1) For that purpose, CM4 sensorchips were activated with 50 μL of 0.2 M N-ethyl-N’-([…])-carbodiimide (EDC) and 0.05 M N-hydroxy-succimide (NHS) at 5 μL/min. Then soluble CD4 (10 μg/mL in 10 mM acetate buffer, pH 5), streptavidin (200 μg/mL in 10 mM acetate buffer, pH 4.2), mAb 17b (5 μg/mL in 10 mM acetate buffer, pH 5), MN gp120 (50 μg/ml in 5 mM maleate buffer, pH 6) or YU2 gp120 (50μg/mL in 10 mM acetate buffer, pH 4.8) were injected at 5 μL/min over one of the EDC/NHS activated flow cell until levels of 1200 (for sCD4), 700 (for mAb 17b), 3000 (for streptavidin), or 4500 (for gp120s) response units (RU) were achieved. HS (1 mM in phosphate-buffered saline) was biotinylated through its reducing end by reductive amination with 10 mM of biotin-LC-Hydrazine (Pierce) and captured on the streptavidin surface (20 μg/mL in 10 mM Hepes buffer pH 7.4 and 0.3 M NaCl) to a level of 60–80 RU as described. Surfaces were then blocked with 1M ethanolamine (pH 8.5) for 5 minutes.
(§2) CD4, mAb 17b and gp120 surfaces were regenerated by 1 min injection of 10 mM HCl and the HS surface was regenerated with a 1 min injection of 0.05% SDS followed by a 3 min injection of 2 M NaCl.
(§3) In order to evaluate the potential anti-viral properties of cinnamon, we first underwent a series of biochemical binding experiments using surface plasmon resonance. […]

YU2 gp120 (R5-tropic) = target: T2, YU2 gp120 (R5-tropic) (Human immunodeficiency virus type 1 group M subtype B, UniProt P35961); format: binding, HIV-1; conditions: SPR, 0 to 25 μM injected
T2 construct: YU2 gp120 (50μg/mL in 10 mM acetate buffer, pH 4.8); purchased Immunodiagnostics (Massachusetts, USA)
Method: as §1, §2, §3

[1] = target: T3, MN gp120 binding to heparan sulfate (HS) (Human immunodeficiency virus type 1 group M subtype B, UniProt P05877); assay: biochemical; design: species or system HIV-1
T3 construct: MN gp120 (50 μg/ml in 5 mM maleate buffer, pH 6); purchased Immunodiagnostics (Massachusetts, USA)
Method: as §1, §2

MN gp120-CD4 interaction = target: T4, MN gp120-CD4 interaction (Human immunodeficiency virus type 1 group M subtype B, UniProt P05877); format: binding, HIV-1; conditions: SPR, immobilized CD4, data not shown
T4 construct: HIV-1 gp120 was injected over the immobilized CD4; purchased Immunodiagnostics (Massachusetts, USA)
Method: as §1, with “minutes. […]” for “minutes.”
(§4) The specific binding responses in resonance unit (RU) for MN- (A) and YU2- (B) gp120 were recorded as a function of time (s). […] The specific binding responses in resonance unit (RU) for MN- (C, E) and YU2- (D, F) gp120 were recorded as a function of time (s), and after each injection, the surface was regenerated by a short pulse of 10 mM HCl.

[2] = target: T5, YU2 gp120-CD4 interaction (Human immunodeficiency virus type 1 group M subtype B, UniProt P35961); format: binding, HIV-1; conditions: SPR, immobilized CD4, data not shown
T5 construct: HIV-1 gp120 was injected over the immobilized CD4; purchased Immunodiagnostics (Massachusetts, USA)
Method: as §1, with “minutes. […]” for “minutes.”
as §4

[3] = target: T6, MN gp120/CD4 complex binding to mAb 17b (co-receptor binding site) (Human immunodeficiency virus type 1 group M subtype B, UniProt P05877); design: species or system HIV-1; conditions: Fig 4E
T6 construct: purchased Immunodiagnostics (Massachusetts, USA)
Method: as §1, with “minutes. […]” for “minutes.”
as §4, with “HCl. […]” for “HCl.”

[4] = target: T7, YU2 gp120/CD4 complex binding to mAb 17b (co-receptor binding site) (Human immunodeficiency virus type 1 group M subtype B, UniProt P35961); design: species or system HIV-1; conditions: Fig 4F
T7 construct: purchased Immunodiagnostics (Massachusetts, USA)
Method: as §1, with “minutes. […]” for “minutes.”
as §4, with “HCl. […]” for “HCl.”

HIV-1 LAI = assay: MAGI assay, HIV-1 LAI; format: cell-based; conditions: Human immunodeficiency virus 1, MAGI cells
Method: (§5) Briefly, target cells (HeLa CD4/CCR5-LTR/β-gal; 10^4/well) were plated in 96-well flat microtiter culture plates. […] The test drugs were added initially and viruses were immediately inoculated onto the cells. Forty-eight hours after viral exposure, all blue cells in each well were counted. The cytotoxicity of the compound was determined by the MTT method as previously described. All experiments were performed in triplicate and AZT was used as reference anti-HIV-1 molecule.

HIV-1 NL4-3 = assay: MAGI assay, HIV-1 NL4-3; format: cell-based; conditions: Human immunodeficiency virus 1, NL43, MAGI cells
Method: as §5

[5] = Cytotoxicity by MTT method (MAGI cells); format: cell-based; conditions: human, HeLa CD4/CCR5-LTR/β-gal cells (MAGI cells); MTT, mean of triplicate ± SD
Method: as §5

[6] = tested on: HeLa CD4/CCR5-LTR/β-gal cells; assay: Cytotoxicity by MTT method (MAGI cells); format: cell-based; conditions: concentrations up to 100 μg/ml (115.7 μM)
Method: as §5

HIV-1 LAI (B-X4) = assay: PBMC antiviral assay (RT activity), HIV-1 LAI; format: cell-based; conditions: Human immunodeficiency virus 1, PBMC, 168 h; PHA-P-activated PBMCs, 125 TCID50, day 7, RT activity
Method: (§6) In order to confirm antiretroviral activity of the compounds, using a cell model closer to the pathophysiology, Peripheral Blood Mononuclear Cells (PBMCs) were separated from a buffy-coat from healthy HIV-, HCV-, HBV-seronegative blood donors by Ficoll-Hypaque density gradient centrifugation. The PBMCs were activated by incubation with 1 μg/ml phytohemagglutinin-P (PHA-P; Difco Laboratories) for three days in RPMI 1640 medium supplemented with 10% heat-inactivated fetal calf serum (FCS, +56 ◦C for 45 min), 2mM l-glutamine and a 1% antibiotic cocktail (penicillin, streptomycin, neomycin). After this mitogen activation, PBMCs were cultivated in the same culture medium supplemented with recombinant human interleukin-2 (rHuIL-2; 20 IU/mL) and treated and/or infected. […] All these viruses were amplified in vitro with PHA-P-activated blood mononuclear cells and 50% tissue culture infectious doses (TCID50) were calculated using Kärber’s formula [37], after limited-dilution titration. […] Viral replication was measured by quantifying reverse transcriptase (RT) activity in the cell culture supernatants using the Lenti RT Activity Kit (Cavidi) and AZT was used as reference anti-HIV-1 molecule. EC50 were then calculated and expressed in μM.

HIV-1 Ba-L (B-R5) = assay: PBMC antiviral assay (RT activity), HIV-1 Ba-L; format: cell-based; conditions: Human immunodeficiency virus 1, BAL, PBMC, 168 h; PHA-P-activated PBMCs, 125 TCID50, day 7, RT activity
Method: as §6

HIV-1 92UG029 (A-X4) = assay: PBMC antiviral assay (RT activity), HIV-1 92UG029; format: cell-based; conditions: Human immunodeficiency virus 1, PBMC, 168 h; PHA-P-activated PBMCs, 125 TCID50, day 7, RT activity
Method: as §6

HIV-1 92HT599 (B-X4) = assay: PBMC antiviral assay (RT activity), HIV-1 92HT599; format: cell-based; conditions: Human immunodeficiency virus 1, PBMC, 168 h; PHA-P-activated PBMCs, 125 TCID50, day 7, RT activity
Method: as §6

HIV-1 98IN017 (C-X4) = assay: PBMC antiviral assay (RT activity), HIV-1 98IN017; format: cell-based; conditions: Human immunodeficiency virus 1, PBMC, 168 h; PHA-P-activated PBMCs, 125 TCID50, day 7, RT activity
Method: as §6

Cytotoxicity in PBMCs = format: cell-based, human; conditions: human, PHA-P-activated peripheral blood mononuclear cells (PBMCs)
[7] = tested on: HIV-1 reference strains and clinical isolates; assay: PBMC antiviral assay, whole panel of strains; format: cell-based
Method: The PBMCs were activated by incubation with 1 μg/ml phytohemagglutinin-P (PHA-P; Difco Laboratories) for three days in RPMI 1640 medium supplemented with 10% heat-inactivated fetal calf serum (FCS, +56 ◦C for 45 min), 2mM l-glutamine and a 1% antibiotic cocktail (penicillin, streptomycin, neomycin). After this mitogen activation, PBMCs were cultivated in the same culture medium supplemented with recombinant human interleukin-2 (rHuIL-2; 20 IU/mL) and treated and/or infected. PBMCs were infected either with the reference lymphotropic (-X4) HIV-1 LAI strain [35], the reference macrophage-tropic (-R5) HIV-1 BaL strain [36] or with 4 different clinical isolates (subtype A, B or C). All these viruses were amplified in vitro with PHA-P-activated blood mononuclear cells and 50% tissue culture infectious doses (TCID50) were calculated using Kärber’s formula [37], after limited-dilution titration. […] Cell supernatants were collected at day 7 post-infection and stored at -20°C. Viral replication was measured by quantifying reverse transcriptase (RT) activity in the cell culture supernatants using the Lenti RT Activity Kit (Cavidi) and AZT was used as reference anti-HIV-1 molecule. EC50 were then calculated and expressed in μM. […]

[8] = tested on: Tim-3 expression on CD4+ and CD8+ T cells; assay: Flow cytometry of Tim-3 on T cells of HIV-1-infected PBMCs; format: cell-based, human; conditions: day 9 post infection
Source text: (§7) PBMCs (1 x 10^6/ml) were infected with 100 TCID50 of various HIV-1 strains (92UG037: primary R5-tropic strain; YU2B and BaL: R5-tropic lab strains, 93BR020: dual-tropic primary isolate; NL4-3: X4-tropic lab strain) and simultaneously treated with a range of concentrations of IND02-trimer in 24-well plates (Greiner) in duplicates. Cells were washed, fixed (4% paraformaldehyde) and stained on several days post infection (1-4-9-13-19) using the following mAbs against PD-1-Brilliant Violet 421, CD3-FITC, Tim-3-PE, CD4-PE-Cy7 (all from Biolegend) and CD8-APC (Miltenyi). Multicolor flow cytometric analyses were performed on a FACS Verse (BD Biosciences).
(§8) Fig 5 Reduction of Tim-3 (left) and PD1 (right) expression on HIV-1 and IND02-trimer-treated CD8^+ (A) and CD4^+ (B) T cells. Stimulated PBMCs were simultaneously incubated with 0.4 to 40 μg/ml (0.46–46.3 μM) IND02-trimer and HIV-1 (92UG037, BaL, YU2b, 93BR020 or NL4-3). Up-regulation of Tim-3 (left) and PD-1 (right) on CD8^+ (A) and CD4^+ (B) T cells was impeded by the IND02-trimer, as shown by multicolour FACS analyses of live T cells on day 9 post co-treatment. Experiments were repeated in 4–5 independent experiments with cells from different donors and statistical differences were analyzed by the GraphPad prism software using the unpaired student’s t-test (2-tailed).

[9] = tested on: PD-1 expression on CD4+ and CD8+ T cells; assay: Flow cytometry of PD-1 on T cells of HIV-1-infected PBMCs; format: cell-based, human; conditions: day 9 post infection
Source text: as §7, §8

[10] = tested on: PD-1 expression on CD4+ and CD8+ T cells; assay: Flow cytometry of PD-1 on T cells without HIV-1 (IND02-trimer alone); format: cell-based, human; conditions: no HIV-1, day 9 post exposure
[11] = Stability studies in formulations; format: physicochemical; conditions: in various formulations
Water solubility = format: physicochemical

Oc1cc(O)c2c(c1)O[C@@]1(c3ccc(O)c(O)c3)Oc3cc(O)c4c(c3[C@@H]2[C@H]1O)O[C@H](c1ccc(O)c(O)c1)[C@H](O)[C@H]4c1c(O)cc(O)c2c1O[C@H](c1ccc(O)c(O)c1)[C@H](O)C2 [IND02-trimer, cinnamtannin B1]
binding to immobilized MN gp120 (MN gp120 (X4-tropic)): gave binding signals
binding to immobilized YU2 gp120 (YU2 gp120 (R5-tropic)): gave binding signals
IC50 [1]: 7.5 ± 3.5 µM
inhibition of MN envelope binding to CD4 (MN gp120-CD4 interaction): did not show a significant inhibition
inhibition of YU2 envelope binding to CD4 [2]: did not show a significant inhibition
concentration from which inhibition of MN gp120/CD4 binding to mAb 17b was observed [3]: ≥ 50 µM
concentration from which inhibition of YU2 gp120/CD4 binding to mAb 17b was observed [4]: ≥ 50 µM
EC50 (HIV-1 LAI): 3.4 µg/mL
EC50 (HIV-1 LAI; 48 h, mean of triplicate ± SD): 3.9 ± 1.6 µM
EC50 (HIV-1 NL4-3): 2.8 µg/mL
EC50 (HIV-1 NL4-3; 48 h, mean of triplicate ± SD): 3.2 ± 1.4 µM
CC50 [5]: 96 ± 4 µM
cytotoxicity [6]: did not show cytotoxicity
EC50 (HIV-1 LAI (B-X4)): 4.6 ± 3 µM
EC50 (HIV-1 Ba-L (B-R5)): 6.9 ± 2 µM
EC50 (HIV-1 92UG029 (A-X4)): 2.3 µM
EC50 (HIV-1 92HT599 (B-X4)): 1.2 ± 1 µM
EC50 (HIV-1 98IN017 (C-X4)): 0.8 µM
CC50 (Cytotoxicity in PBMCs): 23 ± 2 µM
EC50 ([7]; Human immunodeficiency virus 1, PBMC, read-out: EC50 over the panel of strains): 0.8 to 7 µM
ED50 against a range of clinical isolates from different clades ([7]; PBMCs): 1 to 7 µM
Tim-3 expression on CD8+ T cells versus infected control cells ([8]; HIV-1-infected PBMC cultures, 0.4 to 40 μg/ml (0.46–46.3 μM)): significantly lower expression
Tim-3 expression on CD4+ T cells versus infected control cells ([8]; HIV-1-infected PBMCs): decreased
PD-1 expression on CD8+ T cells versus infected control cells ([9]; HIV-1-exposed PBMCs, all concentrations tested (0.4 to 40 μg/ml)): significantly reduced
PD-1 expression on CD4+ T cells versus infected control cells ([9]; HIV-1-infected PBMCs): decreased
% CD4+/PD-1+ ([10]; 0.4 μg/ml / 0.46 μM): 33.8%
% CD8+/PD-1 ([10]; 0.4 μg/ml / 0.46 μM): 23.7%
% CD4+/PD-1+ ([10]; 2 μg/ml / 2.31 μM): 35.0%
% CD8+/PD-1 ([10]; 2 μg/ml / 2.31 μM): 23.5%
% CD4+/PD-1+ ([10]; 4 μg/ml / 4.6 μM): 32.1%
% CD8+/PD-1 ([10]; 4 μg/ml / 4.6 μM): 23.7%
% CD4+/PD-1+ ([10]; 20 μg/ml / 23.1 μM): 32.0%
% CD8+/PD-1 ([10]; 20 μg/ml / 23.1 μM): 23.9%
% CD4+/PD-1+ ([10]; 40 μg/ml / 46 μM): 32.7%
% CD8+/PD-1 ([10]; 40 μg/ml / 46 μM): 23.5%
time over which the compound is stable [11]: ≥ 6 months
water solubility (Water solubility): water-soluble
